{
  "source": "patent US12319699B2",
  "about": "“L-proline sulfonamide derivatives comprising pyrazolo[4,3-e]tetrazolo[4,5-b][1,2,4]triazine system, method of manufacturing thereof, uses thereof and pharmaceutical composition comprising the same” (UNIWERSYTET MEDYCZNY W BIALYMSTOKU, priority 2018, dated 2025)",
  "type_in_all_cases": "in vivo",
  "key": {"[1]": {"system": "DLD-1 xenografts", "assay": "Tumour growth in mice with xenografts", "conditions": "mice with DLD-1 xenografts", "description": "(§1) The second stage of the study was carried out with the use of animals (Cby.Cg-Foxn1nu/J mice, females) (Jackson Laboratory, USA). […] All procedures were carried out in accordance with the guidelines for experiments in animals and a protocol approved by the Local Ethics Committee (Resolution No. August 2018).\n(§2) The studies in in vivo conditions were carried out in the Centre of Experimental Medicine of the Medical University of Bialystok. It is a modern institution which ensures a high standard of SPF barrier animal facilities. Animals are housed in a room with […], in the optimal temperature of 22° C., 55% air humidity, with fifteen air changes per hour (with the speed not exceeding 0.3 m/s) and 12:12 light-dark cycle. The animals were under 24-hour monitoring and period controls of both the animals (in accordance with FELASA recommendations) and the rooms in which they were housed were carried out. The Centre for Experimental Medicine has a Good Laboratory Practice (GLP) certificate.\n(§3) During the initial studies the mice were divided into two groups.\n(§4) After the first week, when tumours reached about 5 mm in diameter, i.e. the size which according to literature data is suitable for carrying out further steps of examination, the mice began receiving subcutaneous injections of the sulfonamide derivative of 7-methyl-5-phenyl-pyrazolo[4,3-e]tetrazolo[4,5-b][1,2,4]triazine comprising 4-hydroxy-L-proline methyl ester in the sulfonamide group according to the invention (the compound of Formula 3) in a dose of 50 μg/kg once a day for two weeks. The moment of administration of the compound was marked as time 0. The control group was constituted by animals that received subcutaneously 50 μl of 10% DMSO in PBS (the solvent for the compound of Formula 3). Before the administration of the sulfonamide derivative of 7-methyl-5-phenyl-pyrazolo[4,3-e]tetrazolo[4,5-b][1,2,4]triazine comprising 4-hydroxy-L-proline methyl ester in the sulfonamide group according to the invention (time 0), after the first week (time 1) and the second week (time 2) of administering this compound, the sizes of tumours were measured in two dimensions by means of a digital calliper. The volume of tumours was expressed in mm3 in accordance with the calculations that were described by Feldman et al. (Feldman J P. Goldwasser R. Mark S. Schwartz J. Orion I. JAQM. 2009.4.455-462)."}, "[2]": {"system": "HT-29 xenografts", "assay": "Tumour growth in mice with xenografts", "conditions": "mice with HT-29 xenografts", "description": "as §1, §2, §3, §4"}, "[3]": {"assay": "Body weight of xenograft mice after two-week therapy", "conditions": "mice with DLD-1 and HT-29 xenografts, 50 μg/kg s.c. once a day", "description": "as §1\nas §4, with “The control group was constituted by animals that received subcutaneously 50 μl of 10% DMSO in PBS (the solvent for the compound of Formula 3).” left out, “The volume of tumours was expressed in mm3 in accordance with the calculations that were described by Feldman et al. (Feldman J P. Goldwasser R. Mark S. Schwartz J. Orion I. JAQM. 2009.4.455-462).” left out\nAdditionally, the effect of the compound of Formula 3 on the body weight of the animals after the two-week therapy was assessed."}, "[4]": {"assay": "Haematological analysis of xenograft mice after two-week therapy", "conditions": "mice with DLD-1 and HT-29 xenografts, 50 μg/kg s.c. once a day", "description": "as §1\nas §4, with “The control group was constituted by animals that received subcutaneously 50 μl of 10% DMSO in PBS (the solvent for the compound of Formula 3).” left out, “The volume of tumours was expressed in mm3 in accordance with the calculations that were described by Feldman et al. (Feldman J P. Goldwasser R. Mark S. Schwartz J. Orion I. JAQM. 2009.4.455-462).” left out"}, "[5]": {"conditions": "50 μg/kg s.c. once a day for two weeks, p<0.05"}, "[6]": {"conditions": "50 μg/kg s.c. once a day, after the second week, p<0.001"}},
  "data": [
    {"molecule": "COC(=O)C1CC(O)CN1S(=O)(=O)c1ccc(-n2nc(C)c3nc4nnnn4nc32)cc1", "note": "(stereo not drawn) [Compound of Formula 3, Methyl 4-hydroxy-1-[4-(7-methyl-5H-pyrazolo[4,3-e]tetrazolo[4,5-b][1,2,4]triazyn-5-yl)phenylsulfonyl]pyrrolidine-2-carboxylate]", "values": [
      {"measurement": "tumour weight post mortem vs control", "setting": "[1]; [5]", "result": "Statistically significant reduction in tumour weight"},
      {"measurement": "inhibition of tumour growth (tumour volume) vs control", "setting": "[1]; [6]", "result": "statistically significant inhibition of tumour growth"},
      {"measurement": "tumour weight post mortem vs control", "setting": "[2]; [5]", "result": "Statistically significant reduction in tumour weight"},
      {"measurement": "inhibition of tumour growth (tumour volume) vs control", "setting": "[2]; [6]", "result": "statistically significant inhibition of tumour growth"},
      {"measurement": "effect on body weight of the animals vs control", "setting": "[3]", "result": "No significant differences"},
      {"measurement": "haematological parameters (WBC, RBC, PLT, HCT, HGB, MCV, MCH, MCHC)", "setting": "[4]", "result": "did not reveal any statistically significant changes"}
    ]}
  ]
}
